These results are taken from patent US4397860A, “Benzodioxanyl imidazoline compounds, compositions and use” (Reckitt & Colman Products Limited, priority 1981, dated 1983).

Structures are written as SMILES. Where a name gives a salt, the structure may show the parent alone. Read-outs that look alike come from different tables or passages of the source.

Assay [1] deals with T1, postsynaptic α1-adrenoreceptor (Rattus norvegicus, UniProt P43140).
T1 construct: the rat anococcygeus muscle is used to establish postsynaptic α1 -adrenoreceptor activity; from tissue; host or cells: rat anococcygeus muscle
T1 sequence (P43140 1-466): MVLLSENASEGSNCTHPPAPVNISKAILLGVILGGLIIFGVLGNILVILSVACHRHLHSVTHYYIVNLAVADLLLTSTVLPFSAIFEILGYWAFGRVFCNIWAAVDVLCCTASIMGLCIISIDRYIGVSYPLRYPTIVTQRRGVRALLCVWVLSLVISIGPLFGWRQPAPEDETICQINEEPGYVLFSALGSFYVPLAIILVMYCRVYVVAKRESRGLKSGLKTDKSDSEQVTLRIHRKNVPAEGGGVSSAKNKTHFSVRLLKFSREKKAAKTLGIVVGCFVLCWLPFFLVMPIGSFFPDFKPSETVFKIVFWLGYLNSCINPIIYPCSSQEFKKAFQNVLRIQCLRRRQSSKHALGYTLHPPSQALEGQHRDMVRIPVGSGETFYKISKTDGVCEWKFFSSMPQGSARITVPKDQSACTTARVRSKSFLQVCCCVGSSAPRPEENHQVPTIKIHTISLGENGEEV
Description: Post-synaptic α1-adrenoreceptor antagonist activity, rat anococcygeus muscle (noradrenaline-induced contractions).

For assay [2], the target named is T2, pre-synaptic α2-adrenoreceptor (Mus musculus, UniProt Q01338).
T2 construct: from tissue; host or cells: mouse vas deferens
T2 sequence (Q01338 1-465): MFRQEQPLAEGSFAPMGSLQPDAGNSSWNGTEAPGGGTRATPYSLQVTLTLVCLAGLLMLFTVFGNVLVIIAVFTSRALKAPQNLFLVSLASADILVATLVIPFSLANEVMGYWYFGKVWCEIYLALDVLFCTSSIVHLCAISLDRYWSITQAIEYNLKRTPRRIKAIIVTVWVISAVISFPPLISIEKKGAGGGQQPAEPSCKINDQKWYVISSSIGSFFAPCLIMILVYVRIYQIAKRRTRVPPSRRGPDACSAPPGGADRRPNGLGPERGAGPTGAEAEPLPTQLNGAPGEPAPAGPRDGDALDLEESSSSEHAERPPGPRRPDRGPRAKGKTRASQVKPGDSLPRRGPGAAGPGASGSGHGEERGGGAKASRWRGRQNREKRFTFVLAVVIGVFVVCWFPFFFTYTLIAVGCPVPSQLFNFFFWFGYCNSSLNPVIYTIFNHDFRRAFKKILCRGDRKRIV
In words: Pre-synaptic α2-adrenoreceptor agonist activity, mouse vas deferens (inhibition of twitch responses). Also on record: key: I.A.: inactive. The note with it: potency relative to clonidine = 1. The procedure: The pharmacological activity of the compound of Example 1 (in formula I R^1 =methyl) has been compared with the activities of the isomeric compounds in which the methyl group is situated at differing positions in formula A. The procedures involved the measurement of agonist or antagonist activity at pre- and post-synaptic α-adrenoreceptors.
In the procedures outlined below agonist potency of the compounds was determined with respect to standard agents whereas antagonist potency was related to that of the compound of formula A. Pre- and post-synaptic studies were carried out in the mouse vas deferens and rat anococcygeus muscle respectively.
Pre-synaptic studies (α2)
The mouse vas deferens was stimulated at low frequency (0.1 Hz) and the "twitch" responses recorded. Pre-synaptic α2 -adrenoreceptor agonist activity was determined by assessing the ability of compounds to inhibit these contractions. When inhibition was seen the potency of the individual compounds was related to that of the standard α2 -adrenoreceptor agonist clonidine.

Assay [3] addresses T1, postsynaptic α1-adrenoreceptor. In words: Post-synaptic α1-adrenoreceptor agonist activity, rat anococcygeus muscle (contractions). Also on record: key: I.A.: inactive. The note with it: potency relative to phenylephrine = 1.
Assay [4] has as its system pre-synaptic α2-adrenoreceptor. Description: Pre-synaptic α2-adrenoreceptor antagonist activity, mouse vas deferens (reversal of clonidine inhibition). The note with it: for α2/α1 selectivity: selectivity relative to the compound of formula A, mouse vas deferens / rat anococcygeus.
Description: In the antagonist studies the same experimental conditions were used except that the twitch response was suppressed by including clonidine (30 ng/ml) in the physiological solution.
Assay [5] addresses T1, postsynaptic α1-adrenoreceptor. In words: Postsynaptic α1-adrenoreceptor antagonism vs noradrenaline contractions, isolated rat anococcygeus muscle. The note with it: mean of minimum 5 experiments, read-out: Postsynaptic antagonism pA2 vs Noradrenaline (anococcygeus) (converted).
Assay [6] has as its system presynaptic α2-adrenoreceptors. Particulars: from G.B. 2,068,376A / U.S. Ser. No. 230,195; cited from earlier work.
The mark [7] stands for this setting: rat anococcygeus muscle vs noradrenaline, dose-ratio of 2, […].

Consider `Cc1cccc2c1OCC(C1=NCCN1)O2` (stereo not drawn) [Example 5-methyl], for which the “α1 potency: Antagonism (result in words)” value in assay [1] (rat anococcygeus muscle vs noradrenaline, 20ng/ml) is on record as “Potentiation”. For the same compound, the “α2 potency: Agonism” value in assay [2] was 0.1. Also, the “α1 potency: Agonism” value in assay [3] is reported as 1.0.
For the compound `CN1CCN=C1C1COc2ccccc2O1` (stereo not drawn) [3^1 -methyl], the “α1 potency: Antagonism” value in assay [1] is listed as 1.0. Also, the α2/α1 selectivity in assay [4] turned out to be 0.003. For the same compound, the “α2 potency: Agonism” value in assay [2] is recorded as “I.A”. Also, the “α1 potency: Agonism” value in assay [3] is given as “I.A”.
On to `CC1Oc2ccccc2OC1C1=NCCN1` (stereo not drawn) [Example 3-methyl], for which the “α1 potency: Antagonism” value in assay [1] (setting [7]) is on record as less than 0.023. The “α2 potency: Agonism” value in assay [2] is “I.A”. The “α1 potency: Agonism” value in assay [3] was “I.A”.
Consider `Cc1ccc2c(c1)OCC(C1=NCCN1)O2` (stereo not drawn) [Example 6-methyl], for which, in assay [1] (setting [7]), the “α1 potency: Antagonism” value is listed as less than 0.11. For the same compound, the α2/α1 selectivity in assay [4] was 0.7. In addition, in assay [2], the “α2 potency: Agonism” value is “I.A”. Also, the “α1 potency: Agonism” value in assay [3] is reported as “I.A”.
With `CC1(C2=NCCN2)COc2ccccc2O1` (stereo not drawn) [Example 1, 2-[2-(2-Methyl-1,4-benzodioxanyl)]-2-imidazoline hydrochloride], the “α1 potency: Antagonism” value in assay [1] (setting [7]) worked out at 0.28. The “selectivity relative to the compound of formula A (in words)” value in assay [4] (Table 3) is recorded as “rather more than twice as selective as the compound of formula A”. Besides, in assay [4], the α2/α1 selectivity turned out to be 2.4. Also, in assay [2], the “α2 potency: Agonism” value is “I.A”. In addition, the Kb in assay [5] is 2510 nM. Further, the “α1 potency: Agonism” value in assay [3] is listed as “I.A”.
`c1ccc2c(c1)OCC(C1=NCCN1)O2` (stereo not drawn) [formula A, 2-[2-(1,4-benzodioxanyl)]-2-imidazoline]: in assay [6], the “selectivity in blocking presynaptic α2-adrenoreceptors (in words)” value is recorded as “high degree of selectivity in blocking presynaptic α2 -adrenoreceptors”.
For the compound `Cc1cccc2c1OC(C1=NCCN1)CO2` (stereo not drawn) [Example 8-methyl], the “α2 potency: Agonism” value in assay [2] was 0.01. The “α1 potency: Agonism” value in assay [3] is listed as 2.1.
With `Cc1ccc2c(c1)OC(C1=NCCN1)CO2` (stereo not drawn) [Example 7-methyl], in assay [1] (setting [7]), the “α1 potency: Antagonism” value is given as 0.125. For the same compound, the α2/α1 selectivity in assay [4] came to 0.64. Also, the “α2 potency: Agonism” value in assay [2] is on record as “I.A”. In addition, the “α1 potency: Agonism” value in assay [3] turned out to be 0.004.
